Values joined by “and” are separate entries in the source; they are usually repeats but may differ in a detail not shown here. Equal entries are not always repeated. Inconclusive results and toxic doses are left out.
Test system: CD2F1 mice, L1210 leukemia ip, survival T/C
Experiment: NCI In Vivo Anticancer Drug Screen. Data for tumor model L1210 Leukemia (intraperitoneal) in CD2F1 (CDF1) mice
Conditions: higher = longer survival
Outline: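 Implant tumor; dose compound or vehicle; measure endpoint in both groups; report treated divided by control.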

[1] = endpoint: mean survival time, dose: 100.0 mg/kg/injection, schedule: Q04DX002 (ip), vehicle: saline with Tween-80
[2] = endpoint: mean survival time, dose: 200.0 mg/kg/injection, schedule: Q04DX002 (ip), vehicle: saline with Tween-80
[3] = endpoint: mean survival time, dose: 50.0 mg/kg/injection, schedule: Q01DX009 (ip), vehicle: Klucel (hydroxypropylcellulose) (HPC)
[4] = endpoint: mean survival time, dose: 100.0 mg/kg/injection, schedule: Q01DX009 (ip), vehicle: Klucel (hydroxypropylcellulose) (HPC)
[5] = endpoint: mean survival time, dose: 200.0 mg/kg/injection, schedule: Q01DX009 (ip), vehicle: Klucel (hydroxypropylcellulose) (HPC)
[6] = endpoint: mean survival time, dose: 25.0 mg/kg/injection, schedule: Q01DX009 (ip), vehicle: water
[7] = endpoint: mean survival time, dose: 50.0 mg/kg/injection, schedule: Q01DX009 (ip), vehicle: water
[8] = endpoint: mean survival time, dose: 100.0 mg/kg/injection, schedule: Q01DX009 (ip), vehicle: water
[9] = endpoint: mean survival time, dose: 200.0 mg/kg/injection, schedule: Q01DX009 (ip), vehicle: water
[10] = endpoint: mean survival time, dose: 100.0 mg/kg/injection, schedule: Q04DX003 (ip), vehicle: saline with Tween-80
[11] = endpoint: mean survival time, dose: 100.0 mg/kg/injection, schedule: Q01DX001 (ip), vehicle: saline
[12] = endpoint: mean survival time, dose: 200.0 mg/kg/injection, schedule: Q01DX001 (ip), vehicle: saline
[13] = endpoint: mean survival time, dose: 400.0 mg/kg/injection, schedule: Q01DX001 (ip), vehicle: saline
[14] = endpoint: mean survival time, dose: 50.0 mg/kg/injection, schedule: Q01DX009 (ip), vehicle: saline with Tween-80
[15] = endpoint: mean survival time, dose: 100.0 mg/kg/injection, schedule: Q01DX009 (ip), vehicle: saline with Tween-80
[16] = endpoint: mean survival time, dose: 200.0 mg/kg/injection, schedule: Q01DX009 (ip), vehicle: saline with Tween-80

N=c1ccn2c(n1)OC1C(O)C(CO)OC12 (centres undefined)
T/C (endpoint: mean survival time, dose: 37.5 mg/kg/injection, schedule: Q01DX005 (ip), vehicle: saline): 151 % of control | T/C (endpoint: mean survival time, dose: 53.0 mg/kg/injection, schedule: Q01DX009 (ip), vehicle: saline): 246 % of control | T/C (endpoint: mean survival time, dose: 75.0 mg/kg/injection, schedule: Q01DX005 (ip), vehicle: saline): 152 % of control and 173 % of control | T/C (endpoint: mean survival time, dose: 79.0 mg/kg/injection, schedule: Q01DX009 (ip), vehicle: saline): 247 % of control | T/C [1]: 151 % of control | T/C (endpoint: mean survival time, dose: 119.0 mg/kg/injection, schedule: Q01DX009 (ip), vehicle: saline): 331 % of control | T/C (endpoint: mean survival time, dose: 150.0 mg/kg/injection, schedule: Q01DX005 (ip), vehicle: saline): 160 % of control and 171 % of control | T/C (endpoint: mean survival time, dose: 178.0 mg/kg/injection, schedule: Q01DX009 (ip), vehicle: saline): 341 % of control | T/C [2]: 158 % of control | T/C (endpoint: mean survival time, dose: 300.0 mg/kg/injection, schedule: Q01DX005 (ip), vehicle: saline): 205 % of control and 221 % of control | T/C (endpoint: mean survival time, dose: 400.0 mg/kg/injection, schedule: Q04DX002 (ip), vehicle: saline with Tween-80): 205 % of control | T/C (endpoint: mean survival time, dose: 600.0 mg/kg/injection, schedule: Q01DX005 (ip), vehicle: saline): 271 % of control and 274 % of control | T/C (endpoint: median survival time, dose: 200.0 mg/kg/injection, schedule: Q01DX009 (ip), vehicle: water): 375 % of control | T/C (endpoint: median survival time, dose: 500.0 mg/kg/injection, schedule: Q01DX009 (ip), vehicle: water): 93 % of control | T/C (endpoint: median survival time, dose: 600.0 mg/kg/injection, schedule: Q01DX009 (ip), vehicle: water): 105 % of control

CCC1OCC(C(Cl)CCl)O1 (centres undefined)
T/C (endpoint: mean survival time, dose: 12.5 mg/kg/injection, schedule: Q01DX009 (ip), vehicle: Klucel (hydroxypropylcellulose) (HPC)): 94 % of control and 101 % of control | T/C (endpoint: mean survival time, dose: 25.0 mg/kg/injection, schedule: Q01DX009 (ip), vehicle: Klucel (hydroxypropylcellulose) (HPC)): 99 % of control and 102 % of control | T/C [3]: 95 % of control and 96 % of control | T/C [4]: 94 % of control and 107 % of control | T/C [5]: 90 % of control and 91 % of control | T/C (endpoint: mean survival time, dose: 400.0 mg/kg/injection, schedule: Q01DX009 (ip), vehicle: Klucel (hydroxypropylcellulose) (HPC)): 87 % of control

OCCN1CCN(CC/C=C2/c3ccccc3Sc3ccc(Cl)cc32)CC1
T/C (endpoint: mean survival time, dose: 1.56 mg/kg/injection, schedule: Q01DX009 (ip), vehicle: saline): 92 % of control and 97 % of control | T/C (endpoint: mean survival time, dose: 3.12 mg/kg/injection, schedule: Q01DX009 (ip), vehicle: saline): 98 % of control | T/C (endpoint: mean survival time, dose: 6.25 mg/kg/injection, schedule: Q01DX009 (ip), vehicle: saline): 104 % of control and 110 % of control | T/C (endpoint: mean survival time, dose: 12.5 mg/kg/injection, schedule: Q01DX009 (ip), vehicle: saline): 116 % of control and 110 % of control | T/C (endpoint: mean survival time, dose: 25.0 mg/kg/injection, schedule: Q01DX009 (ip), vehicle: saline): 122 % of control and 124 % of control | T/C (endpoint: mean survival time, dose: 50.0 mg/kg/injection, schedule: Q01DX009 (ip), vehicle: saline): 106 % of control

O=C1C(=O)c2ccccc2-c2ccccc21.O=C1C(=O)c2ccccc2-c2ccccc21.[Hg]
T/C (endpoint: mean survival time, dose: 1.56 mg/kg/injection, schedule: Q04DX002 (ip), vehicle: saline with Tween-80): 87 % of control | T/C (endpoint: mean survival time, dose: 3.13 mg/kg/injection, schedule: Q04DX002 (ip), vehicle: saline with Tween-80): 98 % of control | T/C (endpoint: mean survival time, dose: 6.25 mg/kg/injection, schedule: Q04DX002 (ip), vehicle: saline with Tween-80): 113 % of control

O=C1CCC(C(=O)O)=NN1
T/C (endpoint: mean survival time, dose: 12.5 mg/kg/injection, schedule: Q01DX009 (ip), vehicle: water): 96 % of control | T/C [6]: 101 % of control | T/C [7]: 93 % of control | T/C [8]: 93 % of control | T/C [9]: 90 % of control

c1ccc(C[P+](c2ccccc2)(c2ccccc2)c2ccccc2)cc1
T/C (endpoint: mean survival time, dose: 0.63 mg/kg/injection, schedule: Q01DX009 (ip), vehicle: saline with Tween-80): 89 % of control | T/C (endpoint: mean survival time, dose: 1.25 mg/kg/injection, schedule: Q01DX009 (ip), vehicle: saline with Tween-80): 100 % of control | T/C (endpoint: mean survival time, dose: 2.5 mg/kg/injection, schedule: Q01DX009 (ip), vehicle: saline with Tween-80): 93 % of control

CC1CC(C)SC(C(C)(C)C)S1 (centres undefined)
T/C (endpoint: mean survival time, dose: 12.5 mg/kg/injection, schedule: Q04DX002 (ip), vehicle: saline): 105 % of control | T/C (endpoint: mean survival time, dose: 25.0 mg/kg/injection, schedule: Q04DX002 (ip), vehicle: saline): 97 % of control | T/C (endpoint: mean survival time, dose: 50.0 mg/kg/injection, schedule: Q04DX002 (ip), vehicle: saline): 102 % of control

Nc1nccc(N2CCCCC2)n1
T/C (endpoint: mean survival time, dose: 6.25 mg/kg/injection, schedule: Q04DX003 (ip), vehicle: saline with Tween-80): 100 % of control | T/C (endpoint: mean survival time, dose: 12.5 mg/kg/injection, schedule: Q04DX003 (ip), vehicle: saline with Tween-80): 100 % of control | T/C (endpoint: mean survival time, dose: 25.0 mg/kg/injection, schedule: Q04DX003 (ip), vehicle: saline with Tween-80): 97 % of control

Clc1nc2ccccc2nc1CI
T/C (endpoint: mean survival time, dose: 100.0 mg/kg/injection, schedule: Q04DX003 (ip), vehicle: acetone): 100 % of control

N#CCCCN1CCCCCC1
T/C [10]: 97 % of control

O=C1Nc2ccccc2C1c1ccccc1 (centres undefined)
T/C [1]: 97 % of control | T/C [2]: 90 % of control

CC12CCCC=C1N(C=O)c1ccccc12 (centres undefined)
T/C [11]: 95 % of control | T/C [12]: 100 % of control | T/C [13]: 95 % of control

COC(OC)C(OC(C)=O)C(OC(C)=O)C(COC(C)=O)OC(C)=O (centres undefined)
T/C [11]: 107 % of control | T/C [12]: 95 % of control | T/C [13]: 101 % of control

CCOC(=O)c1cn[nH]c1/N=N/N(C)C
T/C (endpoint: mean survival time, dose: 100.0 mg/kg/injection, schedule: Q01DX001 (ip), vehicle: carboxymethylcellulose (CMC)): 115 % of control

CC(=O)OCC1OC(n2ncc3c(NCc4ccco4)ncnc32)C(O)C1O (centres undefined)
T/C [6]: 109 % of control | T/C [7]: 97 % of control | T/C [8]: 111 % of control | T/C [9]: 102 % of control | T/C (endpoint: mean survival time, dose: 400.0 mg/kg/injection, schedule: Q01DX009 (ip), vehicle: water): 86 % of control

O=C(c1ccccc1)N(C(=O)c1ccccc1)c1cccc(N(C(=O)c2ccccc2)C(=O)c2ccccc2)n1
T/C (endpoint: mean survival time, dose: 50.0 mg/kg/injection, schedule: Q04DX002 (ip), vehicle: saline with Tween-80): 101 % of control | T/C [1]: 97 % of control | T/C [2]: 93 % of control

O=Cc1c2ccc(Cl)cc2nc2cc(Cl)ccc12
T/C [10]: 112 % of control | T/C (endpoint: mean survival time, dose: 200.0 mg/kg/injection, schedule: Q04DX003 (ip), vehicle: saline with Tween-80): 93 % of control | T/C (endpoint: mean survival time, dose: 400.0 mg/kg/injection, schedule: Q04DX003 (ip), vehicle: saline with Tween-80): 102 % of control

Cc1c(N=O)c(C)[n+]([O-])n1O
T/C [3]: 89 % of control | T/C [4]: 97 % of control | T/C [5]: 97 % of control

Cc1ccc(CNc2ccc(C)c(Cl)c2)cc1
T/C (endpoint: mean survival time, dose: 100.0 mg/kg/injection, schedule: Q04DX003 (ip), vehicle: other): 101 % of control | T/C (endpoint: mean survival time, dose: 200.0 mg/kg/injection, schedule: Q04DX003 (ip), vehicle: other): 97 % of control | T/C (endpoint: mean survival time, dose: 400.0 mg/kg/injection, schedule: Q04DX003 (ip), vehicle: other): 96 % of control

CC(=O)OCC1OC(N=C=S)C(OC(C)=O)C(OC(C)=O)C1OC(C)=O (centres undefined)
T/C [14]: 115 % of control

Nc1ncnc2c1ncn2C1OC(C(N)C(=O)O)C(O)C1O (centres undefined)
T/C (endpoint: mean survival time, dose: 6.25 mg/kg/injection, schedule: Q01DX005 (ip), vehicle: distilled water + Tween-80): 101 % of control | T/C (endpoint: mean survival time, dose: 12.5 mg/kg/injection, schedule: Q01DX005 (ip), vehicle: distilled water + Tween-80): 96 % of control | T/C (endpoint: mean survival time, dose: 25.0 mg/kg/injection, schedule: Q01DX005 (ip), vehicle: distilled water + Tween-80): 98 % of control | T/C (endpoint: mean survival time, dose: 50.0 mg/kg/injection, schedule: Q01DX005 (ip), vehicle: distilled water + Tween-80): 98 % of control | T/C (endpoint: mean survival time, dose: 100.0 mg/kg/injection, schedule: Q01DX005 (ip), vehicle: distilled water + Tween-80): 103 % of control

COc1ccc(/C=N/NC(=O)CNC(=O)Nc2ccc(F)cc2)cc1OC
T/C [14]: 96 % of control | T/C [15]: 92 % of control | T/C [16]: 92 % of control

CCCC(O)C1CCCCC1O (centres undefined)
T/C [15]: 92 % of control | T/C [16]: 92 % of control | T/C (endpoint: mean survival time, dose: 400.0 mg/kg/injection, schedule: Q01DX009 (ip), vehicle: saline with Tween-80): 96 % of control

CCCCC(c1ccccc1)P(=O)(OCC)OCC (centres undefined)
T/C (endpoint: mean survival time, dose: 25.0 mg/kg/injection, schedule: Q01DX009 (ip), vehicle: saline with Tween-80): 97 % of control | T/C [14]: 103 % of control | T/C [15]: 102 % of control and 111 % of control

CN(C)CCC(C#N)(c1ccccc1)c1ccccc1
T/C (endpoint: mean survival time, dose: 75.0 mg/kg/injection, schedule: Q01DX001 (ip), vehicle: saline): 102 % of control | T/C (endpoint: mean survival time, dose: 150.0 mg/kg/injection, schedule: Q01DX001 (ip), vehicle: saline): 100 % of control

Reference: PubChem BioAssay AID256 (DTP/NCI, 2004)
